Legend:
[1] = Anti-arteriosclerosis effect: lipid-stained area of aorta in rabbits on high fat diet; assay type: in vivo, Japanese white rabbits; conditions: rabbit aorta, lipid stain, high fat diet 100 g/day, 12 weeks
Description: Japanese white rabbits (Kitayama Labes., Co Ltd.) aged 9 weeks were used in the test. Blood was collected from the auricular artery of animals acclimated to feeding with high fat diet (RC-4 containing 0.3% cholesterol and 3% peanut oil, Oriental Yeast, Co., Ltd.), and then the animals were grouped into 4 groups containing 12 animals each so that there might be no intergroup difference with respect to body weight and parameters in plasma (neutral fat value, total cholesterol value, HDL cholesterol value). Compound (1) was added to the high fat diet so that the intake of Compound (1) might be 3, 10, and 30 mg/kg/100 g diet/day. The animals were allowed to take the diet restricted to 100 g diet/day for 12 weeks, lipid of the aorta was stained, and the stained region was defined as the arteriosclerotic region. The percentage of area of the arteriosclerotic region was calculated according to the equation below.

Solubility in water = assay type: physicochemical; conditions: general statement, no test described
[2] = Visceral fat-decreasing effect: fat weight by X ray CT in rats on high fat diet; assay type: in vivo; conditions: SD rats, 35% (w/w) high fat diet with 0.029% (w/w) Compound (1), 3 months
Description: SD rats (Charles River Japan, Inc.) aged 8 weeks were used in the test. Animals acclimated to feeding with 35% (w/w) high fat diet for 1 week were grouped into 2 groups, i.e. a control group and a group treated with Compound (1), for the test. Animals in the control group received the 35% (w/w) high fat diet, and those in the Compound (1) group received the diet prepared by adding Compound (1) to 0.029% (w/w) of the 35% (w/w) high fat diet, for 3 months. Tap water was available ad libitum to the animals in the test.
Fat weight was determined 3 months later with an X ray CT scanner for laboratory animals (Aloka).

[3] = Anti-obesity effect: body weight and gain in rabbits on high fat diet; assay type: in vivo, Japanese white rabbits; conditions: high fat diet restricted to 100 g/day, after 12 weeks
Description: Japanese white rabbits (Kitayama Labes., Co Ltd.) aged 9 weeks were used in the test. Blood was collected from the auricular artery of animals acclimated to feeding with high fat diet (RC-4 containing 0.3% cholesterol and 3% peanut oil, supplied by Oriental Yeast, Co., Ltd.), and then the animals were grouped into 4 groups containing 12 animals each so that there might be no intergroup difference with respect to body weight and plasma parameters (neutral fat value, total cholesterol value, HDL cholesterol value). Compound (1) was added to the high fat diet so that the intake of Compound (1) might be 3, 10, and 30 mg/kg/100 g diet/day. The animals were given the diet restricted to 100 g diet/day for 12 weeks, and body weight and its gain were determined after the 12 weeks.

[4] = Antidiabetic effect: plasma parameters in KKAy mice after 14 days of Compound (1) in diet; assay type: in vivo, mouse (male KKAy, genetically diabetic, insulin-resistant); conditions: blood on day 15; for Free fatty acid / Insulin / Neutral fat: plasma
Description: Male KKAy mice (Clea Japan, Inc.) aged 7 weeks which are genetically diabetic (insulin-resistant) were used in the test. Blood was previously collected from the orbital venous plexus of animals acclimated to feeding with normal powdered diet (CRF-1, Oriental Yeast, Co., Ltd.), and then the animals were grouped into 5 groups containing 6 animals each so that there might be no intergroup difference with respect to plasma parameters (neutral fat value, free fatty acid value, insulin value, blood sugar level). Compound (1) was added to the powdered diet so that the concentration in the diet might be 1, 3, 10, and 30 mg/kg/day. The animals were allowed to take the diet ad libitum for 14 days, and blood was collected again from the orbital venous plexus in the morning on day 15 for the measurement of the above-mentioned plasma parameters.

SMILES: CCOC(=O)C(COC(=O)Cc1ccc(NC(=O)c2ccccc2-c2ccc(C(F)(F)F)cc2)c(C(=O)N(C)C)c1)(C(=O)OCC)c1ccccc1 [Compound (1), 2-(2-{3-dimethylcarbamoyl-4-[(4′-trifluoromethyl-biphenyl-2-carbonyl)amino]phenyl}acetoxymethyl)-2-phenylmalonic acid diethyl ester]
- Percentage of area of arteriosclerotic region ([1]; 3 mg/kg/day): 28.4%
- Percentage of area of arteriosclerotic region ([1]; 10 mg/kg/day): 7.7%
- Percentage of area of arteriosclerotic region ([1]; 30 mg/kg/day): 0.15%
- Solubility in water (Solubility in water): slightly soluble or insoluble in water
- Muscle weight [2]: 204.4 g
- Subcutaneous fat weight [2]: 14.9 g
- Visceral fat weight [2]: 28.8 g
- Body weight ([3]; 3 mg/kg/day): 3122.1 g
- Body weight gain ([3]; 3 mg/kg/day): 1176.0 g
- Body weight ([3]; 10 mg/kg/day): 2997.1 g
- Body weight gain ([3]; 10 mg/kg/day): 1065.9 g
- Body weight ([3]; 30 mg/kg/day): 2969.0 g
- Body weight gain ([3]; 30 mg/kg/day): 1025.4 g
- Blood sugar ([4]; 1 mg/kg/day in diet): 413 ± 34.9 mg/dL
- Blood sugar ([4]; 3 mg/kg/day in diet): 516 ± 14.9 mg/dL
- Blood sugar ([4]; 10 mg/kg/day in diet): 405 ± 36.8 mg/dL
- Blood sugar ([4]; 30 mg/kg/day in diet): 331 ± 39.6 mg/dL
- Free fatty acid ([4]; 1 mg/kg/day in diet): 353 ± 15.9 µEq/l
- Insulin ([4]; 1 mg/kg/day in diet): 117 ± 14.0 ng/mL
- Neutral fat ([4]; 1 mg/kg/day in diet): 676 ± 57.2 mg/dL
- Free fatty acid ([4]; 3 mg/kg/day in diet): 293 ± 11.7 µEq/l
- Insulin ([4]; 3 mg/kg/day in diet): 103 ± 10.5 ng/mL
- Neutral fat ([4]; 3 mg/kg/day in diet): 716 ± 79.9 mg/dL
- Free fatty acid ([4]; 10 mg/kg/day in diet): 235 ± 24.9 µEq/l
- Insulin ([4]; 10 mg/kg/day in diet): 102 ± 11.3 ng/mL
- Neutral fat ([4]; 10 mg/kg/day in diet): 545 ± 53.1 mg/dL
- Free fatty acid ([4]; 30 mg/kg/day in diet): 171 ± 17.4 µEq/l
- Insulin ([4]; 30 mg/kg/day in diet): 67 ± 10.4 ng/mL
- Neutral fat ([4]; 30 mg/kg/day in diet): 298 ± 21.0 mg/dL

Source: patent publication US20060030623A1, “Agent for the treatment or prevention of diabetes, obesity or arteriosclerosis” (priority 2004, published 2006)
